Measurements: US7429599B2, “Methods for treating or preventing an inflammatory or metabolic condition or inhibiting JNK” (Signal Pharmaceuticals, LLC, priority 2000, dated 2008)
Where a name gives a salt, the structure may show the parent alone. Read-outs that look alike come from different tables or passages of the source.

Molecular target: T1, His6-JNK2 (Homo sapiens, UniProt P45984)
T1 construct: His6 (N)
Experiment: JNK2 Assay (c-Jun phosphorylation, 32P-ATP filter plate)
Type: biochemical
Settings: c-Jun phosphorylation reduced to 50% of control, GST-c-Jun(1-79), 11 μM ATP
Procedure: To 10 μL of the test compound in 20%/DMSO/80% dilutien buffer consisting of 20 mM HELPS (pH 7.6), 0.1 mM; EDTA, 2.5 mM magnesium chloride, 0.004% Triton×100, 2 μg/mL leupeptin, 20 mM β-glycerolphosphate, 0.1 mM sodium vanadate, and 2 mM DTT in water is added 30 μL of 50 ng His6-JNK2 in the same dilution buffer. The mixture is preincubated for 30 minutes at room temperature. Sixty microliter of 10 μg GST-c-Jun(1-79) in assay buffer consisting of 20 mM HEPES (pH 7.6), 50 mM sodium chloride, 0.1 mM EDTA, 24 mM magnesium chloride, 1 mM DTT, 25 mM PNPP, 0.05% Triton×100, 11 μM ATP, and 0.5 μCi γ-^32P ATP in water is added and the reaction is allowed to proceed for 1 hour at room temperature. The c-Jun phosphorylation is terminated by addition of 150 μL of 12.5% trichloroacetic acid. After 30 minutes, the precipitate is harvested onto a filter plate, diluted with 50 μL of the scintillation fluid and quantified by a counter. The IC50 values are calculated as the concentration of the test compound at which the c-Jun phosphorylation is reduced to 50% of the control value.

[1] = read-out: IC50 value in the JNK2 Assay

T1 sequence (P45984 whole entry): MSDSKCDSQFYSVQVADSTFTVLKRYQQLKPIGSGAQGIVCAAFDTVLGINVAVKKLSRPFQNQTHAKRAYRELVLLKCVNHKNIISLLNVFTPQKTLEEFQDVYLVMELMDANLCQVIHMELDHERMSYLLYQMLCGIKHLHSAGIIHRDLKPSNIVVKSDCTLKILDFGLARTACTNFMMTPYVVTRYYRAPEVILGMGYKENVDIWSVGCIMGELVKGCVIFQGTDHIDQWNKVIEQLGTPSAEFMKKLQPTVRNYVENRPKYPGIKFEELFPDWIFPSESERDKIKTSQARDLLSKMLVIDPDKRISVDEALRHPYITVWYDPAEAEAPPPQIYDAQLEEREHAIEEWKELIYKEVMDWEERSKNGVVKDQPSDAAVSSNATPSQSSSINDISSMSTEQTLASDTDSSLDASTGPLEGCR

`CC(=O)c1ccc(N2CCN(C(=O)c3ccc(Nc4nccc(-c5ccc(Cl)cc5)n4)cc3)CC2)cc1` [Compound 17-134] showed an IC50 [1] of no more than 10 µM.

In the case of `COc1ccccc1N1CCN(C(=O)c2ccc(Nc3nccc(-c4ccc(Cl)cc4)n3)cc2)CC1` [Compound 17-135], the IC50 [1] is reported as no more than 10 µM.

Compound `O=C(c1ccc(Nc2nccc(-c3ccc(Cl)cc3)n2)cc1)N1CCN(c2ccc([N+](=O)[O-])cc2)CC1` [Compound 17-136] has an IC50 [1] of no more than 10 µM.

Compound `CCOC(=O)N1CCN(C(=O)c2ccc(Nc3nccc(-c4ccc(Cl)cc4)n3)cc2)CC1` [Compound 17-137] has an IC50 [1] of no more than 1 µM.

With `O=C(c1ccc(Nc2nccc(-c3ccc(Cl)cc3)n2)cc1)N1CCC2(CC1)OCCO2` [Compound 17-139] the IC50 (IC50 value in the JNK2 Assay) was no more than 10 µM.

Compound `O=C(c1ccc(Nc2nccc(-c3ccc(Cl)cc3)n2)cc1)N1CCC(c2ccccc2)CC1` [Compound 17-140] has an IC50 [1] of no more than 10 µM.

Work on `CC(C)NC(=O)CN1CCN(C(=O)c2ccc(Nc3nccc(-c4ccc(Cl)cc4)n3)cc2)CC1` [Compound 17-141] yielded an IC50 [1] of no more than 1 µM.

Work on `O=C(NCCN1CCOCC1)c1ccc(Nc2nccc(-c3ccc(Cl)cc3)n2)cc1` [Compound 17-142] yielded an IC50 [1] of no more than 10 µM.

In the case of `O=C(c1ccc(Nc2nccc(-c3ccc(Cl)cc3)n2)cc1)N1CCN(c2cccc(C(F)(F)F)c2)CC1` [Compound 17-143], the IC50 [1] is reported as no more than 10 µM.

`O=C(c1ccc(Nc2nccc(-c3ccc(Cl)cc3)n2)cc1)N1CC=CCC1` [Compound 17-144] gave an IC50 [1] of no more than 10 µM.

`CCN(Cc1ccncc1)C(=O)c1ccc(Nc2nccc(-c3ccc(Cl)cc3)n2)cc1` [Compound 17-147] showed an IC50 [1] of no more than 1 µM.

`O=C(c1ccc(Nc2nccc(-c3ccc(Cl)cc3)n2)cc1)N1CCN(c2ccccn2)CC1` [Compound 17-148] gave an IC50 [1] of no more than 10 µM.

`O=C(c1ccc(Nc2nccc(-c3ccc(Cl)cc3)n2)cc1)N1CCN(c2ccc(F)cc2)CC1` [Compound 17-149] gave an IC50 [1] of no more than 10 µM.

`CN(C)CCN(Cc1ccccc1)C(=O)c1ccc(Nc2nccc(-c3ccc(Cl)cc3)n2)cc1` [Compound 17-150] gave an IC50 [1] of no more than 10 µM.

Work on `CN(CCc1ccccn1)C(=O)c1ccc(Nc2nccc(-c3ccc(Cl)cc3)n2)cc1` [Compound 17-151] yielded an IC50 [1] of no more than 10 µM.

`CN1CCCC1CCNC(=O)c1ccc(Nc2nccc(-c3ccc(Cl)cc3)n2)cc1` (stereo not drawn) [Compound 17-152] showed an IC50 [1] of no more than 10 µM.

For `CCN(CC)CCCNC(=O)c1ccc(Nc2nccc(-c3ccc(Cl)cc3)n2)cc1` [Compound 17-153], the IC50 [1] was no more than 10 µM.

Work on `CN(C)CCCNC(=O)c1ccc(Nc2nccc(-c3ccc(Cl)cc3)n2)cc1` [Compound 17-154] yielded an IC50 [1] of no more than 1 µM.

`CN(Cc1ccccc1)C(=O)c1ccc(Nc2nccc(-c3ccc(Cl)cc3)n2)cc1` [Compound 17-157] showed an IC50 [1] of no more than 10 µM.

Compound `O=C(c1ccc(Nc2nccc(-c3ccc(Cl)cc3)n2)cc1)N1CCN(c2ccccc2)CC1` [Compound 17-158] has an IC50 [1] of no more than 10 µM.

With `O=C(c1ccc(Nc2nccc(-c3ccc(Cl)cc3)n2)cc1)N1CCN(C(=O)c2ccco2)CC1` [Compound 17-159] the IC50 [1] was no more than 10 µM.

In the case of `CC(=O)N1CCCN(C(=O)c2ccc(Nc3nccc(-c4ccc(Cl)cc4)n3)cc2)CC1` [Compound 17-160], the IC50 [1] is reported as no more than 10 µM.

`O=C(c1ccc(Nc2nccc(-c3ccc(Cl)cc3)n2)cc1)N1CCN(Cc2cccnc2)CC1` [Compound 17-161] showed an IC50 [1] of no more than 10 µM.

With `CCN(C(C)=O)C1CCN(C(=O)c2ccc(Nc3nccc(-c4ccc(Cl)cc4)n3)cc2)C1` (stereo not drawn) [Compound 17-162] the IC50 [1] was no more than 10 µM.

With `CC(=O)N(C)C1CCN(C(=O)c2ccc(Nc3nccc(-c4ccc(Cl)cc4)n3)cc2)C1` (stereo not drawn) [Compound 17-163] the IC50 [1] was no more than 10 µM.

`CN1CCN(CCCNC(=O)c2ccc(Nc3nccc(-c4ccc(Cl)cc4)n3)cc2)CC1` [Compound 17-164] showed an IC50 [1] of no more than 10 µM.

Work on `O=C(c1ccc(Nc2nccc(-c3ccc(Cl)cc3)n2)cc1)N1CCC(N2CCCCC2)CC1` [Compound 17-169] yielded an IC50 [1] of no more than 1 µM.

`O=C(c1ccc(Nc2nccc(-c3ccc(Cl)cc3)n2)cc1)N1CCC(N2CCCC2)CC1` [Compound 17-171] showed an IC50 [1] of no more than 1 µM.

In the case of `C[C@@H]1CN(C(=O)c2ccc(Nc3nccc(-c4ccc(Cl)cc4)n3)cc2)C[C@H](C)N1` [Compound 17-190], the IC50 [1] is reported as no more than 1 µM.

`O=C(c1ccc(Nc2nccc(-c3ccc(Cl)cc3)n2)cc1)N1CCN(CCO)CC1` [Compound 17-215] showed an IC50 [1] of no more than 10 µM.

`O=C(c1ccc(Nc2nccc(-c3ccc(Cl)cc3)n2)cc1)N1CCNCC1` [Compound 18, 4-{[4-(4-Chlorophenyl)pyrimidin-2-yl]amino}benzoic acid piperazine amide hydrochloride] was tested, and the IC50 [1] was no more than 1 µM.

Compound `CC(=O)NC1CCN(C(=O)c2ccc(Nc3nccc(-c4ccc(Cl)cc4)n3)cc2)CC1` [Compound 20-1] has an IC50 [1] of no more than 1 µM.

With `Cc1noc(C)c1C(=O)NC1CCN(C(=O)c2ccc(Nc3nccc(-c4ccc(Cl)cc4)n3)cc2)CC1` [Compound 20-2] the IC50 [1] was no more than 10 µM.

`O=C(NC1CCN(C(=O)c2ccc(Nc3nccc(-c4ccc(Cl)cc4)n3)cc2)CC1)c1cccs1` [Compound 20-3] showed an IC50 [1] of no more than 1 µM.

`O=C(NC1CCN(C(=O)c2ccc(Nc3nccc(-c4ccc(Cl)cc4)n3)cc2)CC1)N1CCOCC1` [Compound 20-4] showed an IC50 [1] of no more than 1 µM.

`CN(C)C(=O)NC1CCN(C(=O)c2ccc(Nc3nccc(-c4ccc(Cl)cc4)n3)cc2)CC1` [Compound 20-5] gave an IC50 [1] of no more than 10 µM.

Work on `COCC(=O)NC1CCN(C(=O)c2ccc(Nc3nccc(-c4ccc(Cl)cc4)n3)cc2)CC1` [Compound 20-6] yielded an IC50 [1] of no more than 10 µM.

Compound `CN(C)CCNC1CCN(C(=O)c2ccc(Nc3nccc(-c4ccc(Cl)cc4)n3)cc2)CC1` [Compound 22-10] has an IC50 [1] of no more than 1 µM.

With `O=C(c1ccc(Nc2nccc(-c3ccc(Cl)cc3)n2)cc1)N1CCC(NCCO)CC1` [Compound 22-11] the IC50 [1] was no more than 1 µM.
